Test results: ChEMBL document CHEMBL4825767, “Development of 2-(5,6,7-Trifluoro-1H-Indol-3-yl)-quinoline-5-carboxamide as a Potent, Selective, and Orally Available Inhibitor of Human Androgen Receptor Targeting Its Binding Function-3 for the Treatment of Castration-Resistant Prostate Cancer” (J Med Chem, 2021)

Test: Half life in human liver microsomes at 2 uM in presence of NADPH measured up to 40 mins

half-life at 40 min, 2 µM: 23 min
SMILES: Fc1cc(Cl)c2[nH]cc(-c3ccc4ccccc4n3)c2c1
